Source: paper PMC12040169 (PLOS Biology, 2025)

test: in vitro; conditions: human, hela cells, % viability

Row | SMILES | viability at 28.5 h, 10 µM
1 | COc1cc(OC)c(NC(=O)C(C)Oc2ccc(Cl)c(C)c2)cc1Cl (stereo not drawn) [CBK269697] | 89.7%
2 | O=C(CSc1ccc2ccccc2c1)NCc1ccco1 [CBK269699] | 80.3%
3 | O=C(Nc1cc(-c2nc3ncccc3o2)ccc1Cl)c1cccnc1 [CBK269700] | 90.8%
4 | O=C(CSc1ccc(Br)cc1)NCc1ccco1 [CBK269701] | 86.5%
5 | CC(C)C(=O)NC(=S)Nc1ccc2oc(-c3ccncc3)nc2c1 [CBK269702] | 96.4%
6 | CN(Cc1ccccc1)C1(O)C(=O)Nc2ccc(Cl)cc21 (stereo not drawn) [CBK269703] | 95.9%
7 | Cc1cc(Cl)c(S(=O)(=O)N(C)C)cc1OCC(=O)Nc1ccccc1 [CBK269705] | 89%
8 | Nc1cc(C(=O)c2ccc(Br)c(N)c2)ccc1Cl [CBK269708] | 86.6%
9 | O=C(Oc1ccc2c(c1)OCO2)c1cc(S(=O)(=O)N2CCOCC2)c(Cl)cc1Cl [CBK269709] | 101%
10 | Cc1c(NC(=S)NC(=O)C(C)C)cccc1-c1nc2ncccc2o1 [CBK269712] | 98.3%
11 | COc1cccc(CNc2ccc(-c3nc4ncccc4o3)cc2)c1OC [CBK269716] | 91%
12 | Cc1ccc(-c2nnc(COc3ccc(-c4cnc5ccccc5n4)cc3)o2)cc1 [CBK269721] | 90.9%
13 | Cc1cccc(C(=O)NCc2nnc(SCC(=O)N3CCOCC3)n2C)c1 [CBK269723] | 95.3%
14 | COc1ccccc1NC(=O)COc1ccc(C)cc1[N+](=O)[O-] [CBK269724] | 81.6%
15 | O=C(CC1(O)C(=O)N(Cc2ccc3c(c2)OCO3)c2ccccc21)c1ccccn1 (stereo not drawn) [CBK269725] | 94.2%
16 | CN1CCN(c2ccc(NC(=O)c3ccc([N+](=O)[O-])o3)cc2)CC1 [CBK269727] | 18.8%
17 | Cc1ccc(-c2nnc(COC(=O)c3c4c(nc5ccccc35)CCCC4)o2)cc1 [CBK269728] | 105%
18 | O=C(Nc1cc(-c2nc3ncccc3o2)ccc1Cl)c1ccco1 [CBK269730] | 104%
19 | Cc1cccc(CSc2nnc(C(C)NC(=O)c3ccccc3F)n2C)c1 (stereo not drawn) [CBK269732] | 91.6%
20 | Cc1ccc(SCCCn2ccnc2)cc1 [CBK269733C] | 86.3%
21 | C=CCc1cccc(Cl)c1OCCN1CCN(C)CC1 [CBK269734C] | 90.5%
22 | O=C(CSc1nc2ccccc2c(=O)[nH]1)Nc1ccccc1O [CBK269738] | 104%
23 | COCc1nnc(SCC(=O)N2CCc3ccccc32)n1-c1ccccc1 [CBK269739] | 83.1%
24 | CCn1c(CN2CCOCC2)nnc1SCC(=O)Nc1cccc(Br)c1 [CBK269740] | 85.6%

Row | SMILES | viability at 28.5 h, 10 µM
25 | Cc1ccc(-c2nnc(COC(=O)c3cc(O)nc4ccccc34)o2)cc1 [CBK269741] | 88.9%
26 | Cc1cccc(C)c1NC(=O)CSc1nnc(C(O)c2ccccc2)n1C (stereo not drawn) [CBK269742] | 84.8%
27 | CCN1C(=O)CC(N2CCN(c3cc(-c4ccc(OC)cc4)nc(C)n3)CC2)C1=O (stereo not drawn) [CBK269744] | 106%
28 | CS(=O)(=O)c1cccc(S(=O)(=O)N2CCN(Cc3ccccc3)CC2)c1 [CBK269747] | 88.9%
29 | CC(C)(CO)NC(=O)c1cc(S(=O)(=O)N2CCOCC2)ccc1Cl [CBK269748] | 94%
30 | Cn1c(Cc2ccccc2)nnc1SCC(=O)Nc1ccc(N2CCOCC2)cc1 [CBK269750] | 89.8%
31 | C=CCn1c(NCc2ccco2)nc2ccccc21 [CBK269751] | 87.9%
32 | Cc1ccccc1OC(C)C(=O)Nc1ccccc1C(=O)N1CCOCC1 (stereo not drawn) [CBK269753] | 103%
33 | CCOc1ccc(S(=O)(=O)N2CCC(C(=O)O)CC2)cc1Cl [CBK269759] | 97.4%
34 | O=C(CCC1COc2ccccc2O1)N1CCN(Cc2ccccc2)CC1 (stereo not drawn) [CBK269767] | 93.7%
35 | CCOc1ccc(S(=O)(=O)N(CC)CC(=O)O)cc1C [CBK269770] | 91.5%
36 | CN1CCN(C(=O)c2ccccc2NC(=O)NC2CCCCC2)CC1 [CBK269771] | 94%
37 | COc1ccc(-c2noc(CN(C(=O)Cc3ccc(C)cc3)C(C)C)n2)cc1 [CBK269774] | 89.6%
38 | NC(=O)C1CCN(CC(=O)Nc2cc(C(F)(F)F)ccc2Cl)CC1 [CBK269776] | 100%
39 | O=C(NC1CCCC1)c1ccc2c(c1)C(=O)N(CC1CCCO1)C2=O (stereo not drawn) [CBK269777] | 103%
40 | c1ccc(-c2nn3c(CN4CCOCC4)nnc3c3ccccc23)cc1 [CBK269779] | 89%
41 | CCC(C)Nc1nc(SCC(=O)OC)nc(N(C)C)n1 (stereo not drawn) [CBK269780] | 95.2%
42 | Cn1c(NC(=O)COc2ccccc2)nc2ccccc21 [CBK269783] | 98.7%
43 | CCn1c(C)c(C)n2c3c(=O)n(CCN4CCOCC4)c(=O)n(C)c3nc12 [CBK269786] | 90.6%
44 | O=C(Cc1ccc(Cl)cc1)NCCc1c[nH]c2ccccc12 [CBK269787] | 87%
45 | Cc1cc(CNC(=O)COc2cc(Cl)ccc2Cl)c2ccccc2n1 [CBK269788] | 89.1%
46 | N#Cc1ccccc1NC(=O)CSc1cnn[nH]1 [CBK269795] | 89.3%
47 | Cc1nn(CCCC(=O)O)c(C)c1I [CBK269796] | 91.3%
48 | Cc1nn(C(C)CC(=O)NCc2ccco2)c(C)c1Br (stereo not drawn) [CBK269797] | 89.5%

Row | SMILES | viability at 28.5 h, 10 µM
49 | Cc1cc2c(SCc3cc(O)[nH]n3)ncnc2s1 [CBK269799] | 93.9%
50 | CCC(Sc1nc(C)cc(C)n1)C(=O)Nc1ccc(NC(C)=O)cc1 (stereo not drawn) [CBK269804] | 89%
51 | O=C(Cc1cccs1)NCCc1c[nH]cn1 [CBK269805] | 93.2%
52 | O=C(O)CC1C(=O)NCCN1Cc1ccc(-c2ccccc2)cc1 (stereo not drawn) [CBK269812] | 91%
53 | COc1ccc(Nc2cn(C)nc2C(=O)O)cc1 [CBK269814] | 103%
54 | CCOc1ccc(S(=O)(=O)N2CCC(C(=O)NCCO)CC2)cc1 [CBK269817] | 88.6%
55 | O=C(O)CCCn1cc(NC(=O)Cc2ccccc2)cn1 [CBK269821] | 93.9%
56 | O=C(NCCc1c[nH]cn1)Nc1cccc(C(F)(F)F)c1 [CBK269822] | 105%
57 | O=C(O)c1ccc(Nc2ncnc3c2oc2ccccc23)cc1 [CBK269825C] | 92%
58 | N#Cc1ccc(NC(=O)CCn2cnnn2)cc1 [CBK269832] | 91.4%
59 | CC1CCN(S(=O)(=O)N2CCNCC2)CC1 [CBK269836C] | 91.5%
60 | COc1ccccc1C(=O)NCCCc1nc2ccccc2[nH]1 [CBK269837] | 87.1%
61 | COc1ccc(S(=O)(=O)N2CCN(C(=O)c3ccco3)CC2)c2ccccc12 [CBK269839] | 86.8%
62 | Cn1c(SCCC(=O)O)nnc1-c1ccc2c(c1)OCO2 [CBK269842] | 92.6%
63 | Cc1cc(Oc2ccccc2)nc(Oc2ccc(=O)n(-c3ccccc3)n2)n1 [CBK269843] | 106%
64 | COc1ccccc1/C=C/CN1CCNC(=O)C1CC(=O)O (stereo not drawn) [CBK269845] | 100%
65 | COc1ccc(N2CCN(CC(O)COc3ccc4c(C)cc(=O)oc4c3)CC2)cc1 (stereo not drawn) [CBK269847] | 86.5%
66 | Clc1ccc(OCc2ccccc2)c(CNCc2ccccn2)c1 [CBK269850C] | 91.2%
67 | Cc1c(Cc2ccccc2)sc(NC(=O)c2cccnc2)c1C(N)=O [CBK269851] | 101%
68 | O=C(Nc1ccc(N2CCOCC2)c(Cl)c1)c1cccc(-n2cnnc2)c1 [CBK269853] | 95.6%
69 | CC(=O)N1CCN(c2ccc(NC(=O)CSc3ccc(C)cc3)cc2)CC1 [CBK269854] | 95.6%
70 | O=C(CCn1c(=O)oc2cc(Cl)ccc21)NCc1ccco1 [CBK269857] | 95%
71 | N#Cc1c(SCC(=O)O)nc(-c2cccs2)c2c1CCCC2 [CBK269858] | 103%
72 | COc1ccc(CNc2ccc(N3CCOCC3)c(C(=O)O)c2)c(OC)c1 [CBK269860] | 91.3%

Row | SMILES | viability at 28.5 h, 10 µM
73 | O=C(O)CCC(=O)Nc1ccccc1C(=O)N1CCCCCC1 [CBK269863] | 86.3%
74 | COCCNCc1cccc(OCc2ccccc2)c1 [CBK269864C] | 87.9%
75 | CCOc1ccc(S(=O)(=O)N(C)CC(=O)N2CCN(C)CC2)cc1Cl [CBK269865] | 101%
76 | COc1nc2ccccc2nc1CCC(=O)NCc1ccco1 [CBK269866] | 93.4%
77 | CC(C)N(Cc1nc(-c2ccccc2)no1)C(=O)CCc1ccccc1 [CBK269867] | 109%
78 | COc1cc(S(=O)(=O)NCCc2ccccc2)c(OC)cc1C [CBK269868] | 94.1%
79 | O=c1[nH]c(CSc2nnc(COc3ccccc3)o2)nc2ccccc12 [CBK269869] | 84.9%
80 | COc1ccc(-c2nnn(C3CCNCC3)n2)cc1OC [CBK269870C] | 85.3%
81 | CC1CN(Cc2nc3c(c(=O)[nH]c(=O)n3C)n2CCc2ccccc2)CC(C)O1 (stereo not drawn) [CBK269876] | 98.1%
82 | COc1cc(CNCc2ccccn2)ccc1OCc1cccc(Cl)c1 [CBK269877C] | 94.7%
83 | O=C(O)COc1ccc(S(=O)(=O)N2CCc3ccccc32)cc1 [CBK269882] | 102%
84 | COc1ccc(-c2ccc(C#N)c(SCc3ccncc3)n2)cc1 [CBK269883] | 102%
85 | COCC(=O)NC(C)c1nc2ccccc2n1Cc1ccccc1C (stereo not drawn) [CBK269885] | 88.1%
86 | O=C(CSc1cnn[nH]1)Nc1cccc(C(F)(F)F)c1 [CBK269888] | 90.8%
87 | COc1cccc(C(=O)Nc2ccc(-c3noc(-c4ccncc4)n3)cc2)c1 [CBK269892] | 93.4%
88 | Cc1[nH]c2ccccc2c1C(=O)C(=O)Nc1ccc(C#N)cc1 [CBK269896] | 84.6%
89 | COc1ccc(-c2noc(CNC(=O)Nc3ccccc3)n2)cc1OC [CBK269900] | 88.3%
90 | Ic1cnn(Cc2nc(-c3ccccc3)no2)c1 [CBK269901] | 90.3%
91 | CCN1CCN(c2ccc(C(=O)OC)cc2NC(=O)c2ccccc2C)CC1 [CBK269902] | 92.9%
92 | O=C(CSc1cnn[nH]1)Nc1ccccc1F [CBK269903] | 101%
93 | Cc1ccccc1-c1nc2ccc(NC(=O)CCC(=O)O)cc2o1 [CBK269904] | 93.4%
